B1: BMP7: TGFβ superfamily member that acts through distinct receptors and Smad proteins (protein, UniProt P18075 293-431, looked up)
Bone morphogenetic protein 7: STGSKQRSQNRSKTPKNQEALRMANVAENSSSDQRQACKKHELYVSFRDLGWQDWIIAPEGYAAYYCEGECAFPLNSYMNATNHAIVQTLVHFINPETVPKPCCAPTQLNAISVLYFDDSSNVILKKYRNMVVRACGCH

Experiments:
[1] = tested on: mTEC-KO cells; assay: Reversal of mesenchymal actin cytoskeleton, F-actin phalloidin staining; assay type: cell-based, mouse; conditions: 100 pM TGF-β1 72 h, then inhibitor 24 h; 5 μM SB431542, 1 μM SB203580, 1 μM Y27632, 10 μM U0126, 15 μM SP600125
Experimental: Renal tubular epithelial cells (mTEC-KOs) were treated with 100 pm TGF-β1 for 72 hours and then kinase inhibitors were added for an additional 24 hours. The F-actin in the cells was visualized by staining with phalloidin. mTEC-KO cells were treated with a single kinase inhibitor (A-E) or with SB431542 plus a second kinase inhibitor (F-I). Single kinase inhibitors and concentrations were: 5 μM SB431542 (A), 1 μM SB203580 (B), 1 μM Y27632 (C), 10 μM U0126 (D), or 15 μM SP600125 (E). Combination kinase inhibitors included 5 μM SB431542 with 1 μM SB203580 (F), 1 μM Y27632 (G), 10 μM U0126 (H) or 15 μM SP600125 (I). […] White arrows point to stress fibers.
(§1) Cells were seeded on glass cover slips (Fisher) and cultured as described above. Cells were treated, fixed in 4% paraformaldehyde, and permeabilized in PBS containing 0.1% Triton X-100 for 10 min. Nonspecific sites were blocked with 10% BSA or normal goat serum for 30 min. F-actin was stained at a 1:1000 dilution in 2% BSA of Texas Red-conjugated phalloidin (Sigma) and incubated for 30 min. E-cadherin (BD Biosciences) was diluted at 1:200 in 2% normal goat serum and a secondary antibody (Molecular Probes) at a 1:500 dilution was used for detection. All washes were done in 1× PBS.
To examine the reversibility of the EMT induced by TGF-β1 in mTEC-KO cells, we added inhibitors of kinases previously implicated in EMT. Cells were treated with 100 pM TGF-β1 for 72 hours to induce EMT and kinase inhibitors were added for an additional 24 hours. […] To assess the effects of the kinase inhibitors on EMT, the actin cytoskeleton was examined by phalloidin staining.
Since EMT effects are mediated by multiple cellular pathways and none of the single kinase inhibitors reverted the EMT phenotype, we applied combinations of two inhibitors. […] Cortical actin bordering the cell-cell junctions was restored by both combinations. The addition of either the MEK1 inhibitor or the JNK inhibitor to the […] inhibitor had no detectable effect on the mesenchymal phenotype of the cells (FIGS. 4H and I).

[2] = tested on: Ksp-cadherin; assay: Ksp-cadherin mRNA by quantitative RT-PCR after EMT; assay type: cell-based, mouse; conditions: 100 pM TGF-β1 72 h, then inhibitor(s) for an additional 24 hours
Experimental: In a six well plate, 50,000 cells were seeded and appropriately treated. Total RNA was isolated using RNAeasy Miniprep kit (Qiagen) and quantified by UV spectrophotometer. 1.5 μg of RNA was converted by reverse transcriptase into cDNA using the OmniScript kit (Qiagen). […] 3′. cDNA was amplified in an Opticon 2 PCR machine (MJ Research) and labeled by the DyNAmo SYBR Green qPCR Kit. The amplification was carried out in the following manner: initial denaturation for 10 min at 95° C., denaturation for 10 sec at 95° C., annealing for 30 sec at the appropriate temperature, and extension for 30 sec at 72° C. Standards were created from Pfu (Stratagene) amplified PCR products purified by gel purification. Glyceraldehyde-3-phosphate dehydrogenase (GAPDH) was used as an internal control to normalize gene expression.
The effects of individual or combinations of kinase inhibitors on the expression of several genes altered by EMT were measured by quantitative RT-PCR.

[3] = tested on: SM22; assay: SM22 mRNA by quantitative RT-PCR after EMT; assay type: cell-based, mouse; conditions: 100 pM TGF-β1 72 h, then inhibitor(s) for an additional 24 hours
Experimental: (§2) FIG. 5: Restoration of epithelial gene expression patterns by kinase inhibitors illustrates a requirement for two kinase inhibitors to restore cadherin expression. mTEC-KO cells were treated with 100 pm TGF-β1 for 72 hours to induce EMT. Single kinase inhibitors or inhibitor combinations were added, cells were grown for an additional 24 hours and harvested for preparation of RNA. Ksp-cadherin (A), SM22 (B), and MMP-9 (C) mRNA levels were measured by quanitative RT-PCR. Significant differences between the untreated (No TGF-β1) cells versus cells treated with TGF-β1 or with TGF-β1 followed by inhibitor are indicated with an asterisk (*) (P<0.05, n=9). Significant differences between single inhibitors versus combination inhibitors are indicated by a letter (a,b,c) over the bar showing the combination. Each letter refers to the single inhibitor in the graph (indicated by the letter below the name of the inhibitor).
(§3) In a six well plate, 50,000 cells were seeded and appropriately treated. Total RNA was isolated using RNAeasy Miniprep kit (Qiagen) and quantified by UV spectrophotometer. 1.5 μg of RNA was converted by reverse transcriptase into cDNA using the OmniScript kit (Qiagen). Primers used for Q-PCR were: KSP-Cadherin forward-5′ CTG CAC ACA GM GTC CCT GA 3′, reverse 5′ CCTTGTCGCCACTAGAAAGC 3′; MMP-9-SuperArray (Frederick, Md.) PPM03661A; SM22 forward 5′GCA GTC CM MT TGA GM GA 3′, reverse 5′ CTGTTGCTGCCCATTTGAAG 3′; PAI-1 forward 5′TTCAGCCCTTGCTTGCCTC 3′, reverse 5′[…] 3′. cDNA was amplified in an Opticon 2 PCR machine (MJ Research) and labeled by the DyNAmo SYBR Green qPCR Kit. The amplification was carried out in the following manner: initial denaturation for 10 min at 95° C., denaturation for 10 sec at 95° C., annealing for 30 sec at the appropriate temperature, and extension for 30 sec at 72° C. Standards were created from Pfu (Stratagene) amplified PCR products purified by gel purification. Glyceraldehyde-3-phosphate dehydrogenase (GAPDH) was used as an internal control to normalize gene expression. […]

[4] = tested on: MMP-9; assay: MMP-9 mRNA by quantitative RT-PCR after EMT; assay type: cell-based, mouse; conditions: 100 pM TGF-β1 72 h, then inhibitor(s) for an additional 24 hours
Experimental: as §2, §3

[5] = tested on: E-cadherin; assay: E-cadherin immunofluorescence at cell junctions after EMT; assay type: cell-based, mouse; conditions: 100 pM TGF-β1 72 h, then inhibitors for an additional 36 hours; 5 μM SB431542, 5 μM SB203580, 5 μM Y27632, 15 μM SP600125
Experimental: FIG. 6: E-cadherin is restored by combining TβRI kinase inhibitor with either the ROCK inhibitor or the p38 MAPK inhibitor. E-cadherin is found between mTEC-KO cells (A). mTEC-KO cells were treated with 100 pM TGF-β1 for 72 hours to induce mesenchymal state in which E-cadherin is lost (B). Single inhibitors or combinations of two inhibitors were added for an additional 36 hours. […] E-cadherin reformed between cells that used combination kinase inhibitors which included 5 μM SB431542 with 5 μM SB203580 (G), 5 μM Y27632 (H), but not 15 μM SP600125 (I). Cell lysates from mTEC-KOs were analyzed by western blot using antibodies to E-cadherin and β-tubulin (J). Control epithelial cells were grown without TGF-β (Lane 3). The cells were then treated for an additional 48 hours with no inhibitor (Lane 2), single inhibitors (5 μM Y27632, Lane 6; 5 μM SB203580, Lane 7; 5 μM SB431542, Lane 8) or with the combination of 5 μM SB431542 with either 15 μM SP600125 (Lane 1), 5 μM Y27632 (Lane 4) or 5 μM SB203580 (Lane 5).
as §1
An important criterion for epithelium restoration is re-expression of the cell-cell junction adhesion protein E-cadherin. mTEC-KO cells were treated with 100pm TGF-β1 for 72 hours to induce EMT and then kinase inhibitors were added for an additional 24-48 hours (FIG. 6).

[6] = cited from earlier work
[7] = tested on: mTEC-KO cells; assay: Blocking of TGF-β1-induced EMT (cell morphology, phalloidin staining); assay type: cell-based, mouse; conditions: 10 μM SB431542 together with TGF-β1 for 72 hours
Experimental: FIG. 1: TGF-β1 induces EMT in renal tubular epithelial cells. mTEC-KOs were incubated for 72 hours without TGF-β1 (A,D), with 100 pM TGF-β1 (B, E) or with TGF-β1 and 10 μM SB431542. Cell morphology was observed by brightfield phase microscopy at 100× magnification (A-C). […] White arrows point to stress fibers.
TGF-β knockout Murine Renal Epithelial Tubular Cells (mTEC-KO) were maintained in Renal Epithelial Cell Growth Medium (Cambrex, Md.) containing 0.25% Fetal Bovine serum (FBS), supplemented with a Bullet Kit that contained: epidermal growth factor, insulin, hydrocortisone, GA-1000, epinephrine, T3, transferrin (Cambrex), as well as penicillin and streptomycin (Gibco) in a 37° humidified 5% CO2 incubator.
as §1, with “PBS. […]” for “PBS.”

[8] = tested on: PAI-1; assay: PAI-1 mRNA expression by quantitative RT-PCR in TGFβ-induced mesenchymal cells; assay type: cell-based, mouse; conditions: 100 pM TGF-β1 72 hours, then 5 uM inhibitor for 24 hours
Experimental: TGFβ1 ligand (100 pM) was added to mTEC-KOs for 72 hours, followed by the addition of 5 μM SB431542 plus 100 pM TGFβ1 for an additional time 24 hours. Cell lysates were used to prepare RNA which was examined by quantitative RT-PCR for PAI-1. Significant differences in PAI-1 expression level between cells treated with TGF-β1 alone versus cells treated with TGF-β1 and then with inhibitor for the indicated times are indicated with an asterisk (*) (P<0.05, n=9).
as §3, with “C.” for “C. Standards were created from Pfu (Stratagene) amplified PCR products purified by gel purification. Glyceraldehyde-3-phosphate dehydrogenase (GAPDH) was used as an internal control to normalize gene expression.”

[9] = tested on: mouse distal tubular epithelial cells; conditions: 100 ng/ml BMP7 for 48 hours; cited from earlier work
[10] = 300 ug/kg human BMP7 every other day beginning at week three; cited from earlier work

| Molecule | reversal of mesenchymal actin stress fiber morphology, single kinase inhibitor [1] | Ksp-cadherin mRNA level [2] | SM22 mRNA level [3] | MMP-9 mRNA level [4] | E-cadherin at cell junctions (localization) [5] | other results |
| --- | --- | --- | --- | --- | --- | --- |
| C[S+]([O-])c1ccc(-c2nc(-c3ccncc3)c(-c3ccc(F)cc3)[nH]2)cc1 (stereo not shown) [SB203580] | fail to reverse the mesenchymal actin cytoskeleton | led to a further decrease in Ksp-cadherin expression | did not reduce SM22 or MMP9 transcript levels | did not reduce SM22 or MMP9 transcript levels | caused an increase in reforming E-cadherin at cell junctions | – |
| C[C@@H](N)[C@H]1CC[C@H](C(=O)Nc2ccncc2)CC1 [Y27632] | fail to reverse the mesenchymal actin cytoskeleton | increased Ksp-cadherin to intermediate levels | partially reduced SM22 levels | increased the level of MMP9 expression | caused an increase in reforming E-cadherin at cell junctions | – |
| N#CC(=C(/N)Sc1ccccc1N)/C(C#N)=C(\N)Sc1ccccc1N [U0126] | fail to reverse the mesenchymal actin cytoskeleton | – | – | – | – | – |
| HGF: hepatocyte growth factor | – | – | – | – | – | reversal of EMT in vivo [6]: only provided a partial reversal of EMT |
| NC(=O)c1ccc(-c2nc(-c3ccc4c(c3)OCO4)c(-c3ccccn3)[nH]2)cc1 [SB431542] | did not reverse the mesenchymal actin stress fiber morphology | increased Ksp-cadherin to intermediate levels | efficiently reduced SM22 and MMP-9 expression to pre-EMT levels | efficiently reduced SM22 and MMP-9 expression to pre-EMT levels | caused an increase in reforming E-cadherin at cell junctions | TGF-β1-induced transition of epithelial cells into mesenchymal cells [7]: blocked the TGF-β1-induced transition of the mTEC-KO epithelial cells into mesenchymal cells; actin stress fibers (phalloidin) when inhibitor is given with TGF-β1 [7]: very few actin stress fibers were observed; PAI-1 mRNA level [8]: sufficient to reduce the mRNA level |
| B1 | – | – | – | – | – | reversal of TGF-β1 induced EMT (E-cadherin expression, epithelial morphology) [9]: reversed; renal pathology (mortality, renal function) [10]: reversed the renal pathology as indicated by a decline in mortality, and improvement in renal function |

— US20060234911A1, “Method of reversing epithelial mesenchymal transition” (priority 2005, published 2006)
